{"source": "patent US20100297265A1", "about": "“Optimal compositions and methods for treating oral disease and pain” (priority 2009, published 2010)", "key": {"[1]": {"test_system": "Streptococcus mutans strain ATCC 25175", "test": "S. mutans growth in TS media with cesium/sodium salts (OD 600 nm, doubling time)", "type": "cell-based", "details": "for colonies on TS-agar plate: 50 μL of 100 mM salt culture spread onto TS-agar plate; for inhibition of culture growth rates: nitrate salt, tested at 25-100 mM; for Minimum Inhibitory Concentration (MIC): Lineweaver-Burke plot of growth data", "method": "(§1) Streptococcus mutans strain ATCC 25175 was obtained from American Type Culture Collection in the freeze-dried state. Cells were rehydrated in a trypticase soy-yeast extract media (30 g trypticase soy broth and 3 g yeast extract per liter mqH2O; TS media). The bacteria were grown overnight at 37° C., shaking at 60 rpm in 50 mL broth. For routine propagation of the strain, S. mutans was grown on trypticase soy agar plates, TS media with 15 g/L agar. Escherichia coli strain K12 was grown as a representative enteric bacteria in LB broth (10 g tryptone, 5 g yeast extract and 10 g NaCl per liter mqH2O).\nTo assess the toxicity of cesium chloride, growth rates were calculated from cultures grown in the absence and presence of cesium chloride with sodium chloride added to controls to maintain consistent ionic strength. The first growth curves conducted used duplicate cultures of 50 mL TS media in 125 mL flasks with foam stoppers. The media was inoculated with 1 mL of the starter culture (2% inoculum) and the optical density was measured at 600 nm. Two conditions were initially tested: 100 mM CsCl and 100 mM NaCl.\n(§2) An increasing gradient of CsCl concentrations was examined to see how bacterial growth rate varies with salt concentration. Concentrations of 0 mM, 5 mM, 10 mM, 25 mM, 50 mM, 75 mM and 100 mM CsCl were tested; NaCl was used to counter balance control in order to maintain constant ion concentrations.\nAdditional cesium salts were used to assess alternate inhibitors of S. mutans cultures. Cesium salts of hydroxide, formate, bicarbonate, sulfate, nitrate, fluoride, and iodide were obtained from Fisher Scientific. Growth rates of S. mutans were monitored with 0 mM, 25 mM, 50 mM, and 100 mM cesium salt in TS broth. Control cultures were grown with sodium hydroxide, bicarbonate, nitrate, and sulfate at 0 mM, 25 mM, 50 mM, and 100 mM.\nTo investigate the inhibition of S. mutans by cesium chloride, growth in the presence and absence of CsCl was compared. Ions were balanced with NaCl in all cultures to a final concentration of 100 mM of supplemental cations added to the media (i.e., for 75 mM CsCl, 25 mM NaCl was added to bring the total concentration of supplemental cation to 100 mM). All data is presented in optical density absorbance measurements at 600 nm, or doubling times (the length of time it takes for a culture to double in time)."}, "S. mutans [2]": {"test_system": "S. mutans", "test": "Spiking of exponentially growing S. mutans cultures", "type": "cell-based, Streptococcus mutans", "details": "for doubling time: culture spiked with 100 mM salt in early exponential phase", "method": "To determine how CsCl affects exponentially growing S. mutans cells, cultures were spiked with CsCl. TS media was prepared as in previous experiments and cultures were started with 0.2% inoculum. The cultures were grown for three and a half hours while monitoring the growth with the OD at 600 nm. When the cultures were in early exponential growth phase, they were spiked with 100 mM CsCl, 100 mM NaCl, or Listerine mouthwash in a 1:10 or 1:100 dilution in TS media."}, "[3]": {"test_system": "Escherichia coli strain K12", "test": "E. coli K12 growth in LB broth with CsCl", "type": "cell-based", "method": "as §1\nas §2, with “concentrations. Additional gradient growth curves with 0 mM, 20 mM, 30 mM, 40 mM and 50 mM CsCl were conducted to refine the inhibition profile of S. mutans.” for “concentrations.”"}, "S. mutans [4]": {"test_system": "S. mutans", "test": "S. mutans growth with CsCl under differing pH conditions", "type": "cell-based, Streptococcus mutans"}, "[5]": {"test_system": "E. coli potassium channel mutants (Kch JW1242, TrkG JW1358, TrkH JW5576, KdpA JW0686)", "test": "Growth of E. coli potassium channel mutants with CsCl", "type": "cell-based, Escherichia coli", "method": "In order to better understand the mechanism of inhibition, the following potassium channel mutants of E. coli from the Keio collection were obtained from the Coli Genetic Stock Center at Yale University: Kch mutant JW 1242-1, TrkG mutant JW 1358-1, TrkH mutant JW 5576-1, and KdpA mutant JW686-5. Mutant E. coli strains were grown in LB broth in the presence or absence of CsCl (either 0 mM, 50 mM, or 100 mM CsCl) to assess the role of potassium transport channels in cesium inhibition.\nIt was hypothesized that, as a larger monovalent cation, cesium could block potassium channels, thereby blocking the uptake of potassium into the cell and retarding cell growth. Strains of E. coli with non-essential genes knocked out were acquired from the Yale Coli Genetic Stock Center. Four mutants were chosen: JW0686, a KdpA mutant, a cesium inducible potassium transporting ATPase; JW1242, a Kch mutant, a conductive potassium transporter; JW1358, a TrkG mutant, a transmembrane component of the Trk potassium uptake system; JW5576, a TrkH mutant, a transmembrane component of the Trk potassium uptake system. TrkG and TrkH determine the specificity of the Trk protein. Because of their similarity (i.e., 41% nucleotide homology), Trk can be made with either one of the two subunits if the other is not available, although TrkG is preferred."}, "S. mutans [6]": {"test_system": "S. mutans", "details": "previous study, cited from earlier work"}, "[7]": {"details": "0, 25, 50 and 100 mM cesium salt"}}, "note": "Where two headings read alike, the source gives them in different places."}
{"compound": "O=C[O-].[Cs+]", "note": "[Cesium formate]", "values": [{"measurement": "inhibition of S. mutans growth", "setting": "[1]; [7]", "result": "little to no inhibition"}]}
{"compound": "[Cs+].[OH-]", "note": "[Cesium hydroxide]", "values": [{"measurement": "pH of the media", "setting": "50 mM", "result": 9.5}, {"measurement": "pH of the media", "setting": "100 mM", "result": 12.5}, {"measurement": "inhibition of S. mutans growth", "setting": "[1]; 50 mM or greater, due to increase in pH", "result": "inhibited cultures completely"}]}
{"compound": "O=S(=O)([O-])[O-].[Cs+].[Cs+]", "note": "[Cesium sulfate]", "values": [{"measurement": "inhibition of S. mutans growth", "setting": "[1]; concentrations of 50 mM or below", "result": "not inhibitory"}]}
{"compound": "[Cs+].[F-]", "note": "[Cesium fluoride]", "values": [{"measurement": "inhibition of S. mutans growth", "setting": "[1]; [7]", "result": "little to no inhibition"}]}
{"compound": "[Cl-].[Na+]", "note": "[NaCl, sodium chloride]", "values": [{"measurement": "yield", "setting": "S. mutans [2]; 100 mM spiked control", "result": 0.9, "unit": "OD units"}, {"measurement": "doubling time", "setting": "S. mutans [2]", "result": 1.21, "unit": "h"}, {"measurement": "doubling time", "setting": "[1]; 100 mM NaCl (presented as 0 mM CsCl)", "result": "roughly 1 hour"}, {"measurement": "colonies on TS-agar plate", "setting": "[1]", "result": "small opaque white colonies overnight"}]}
{"compound": "[Na+].[OH-]", "note": "[NaOH, sodium hydroxide]", "values": [{"measurement": "pH of the media", "setting": "50 mM", "result": 9.5}, {"measurement": "pH of the media", "setting": "100 mM", "result": 12.5}]}
{"compound": "O=[N+]([O-])[O-].[Na+]", "note": "[sodium nitrate]", "values": [{"measurement": "inhibition of culture growth rates", "setting": "[1]", "result": "roughly 30%"}]}
{"compound": "cesium bicarbonate", "values": [{"measurement": "inhibition of S. mutans growth", "setting": "[1]; 50 mM", "result": "increased inhibition"}, {"measurement": "inhibition of S. mutans growth", "setting": "[1]; 100 mM", "result": "complete inhibition"}, {"measurement": "Minimum Inhibitory Concentration (MIC)", "setting": "[1]", "result": 40.5, "unit": "mM"}, {"measurement": "inhibition compared with sodium bicarbonate control", "setting": "[1]; concentrations less than 45 mM", "result": "not significantly different"}, {"measurement": "inhibition compared with sodium bicarbonate control", "setting": "[1]; concentrations of 45 mM or greater", "result": "inhibited S. mutans growth more than the control cultures"}, {"measurement": "MIC lower than the MIC for CsCl by", "setting": "[1]; difference of MIC values", "result": "more than 20 mM"}]}
{"compound": "[Cl-].[Cs+]", "note": "[CsCl, cesium chloride]", "values": [{"measurement": "doubling time", "setting": "[3]; all CsCl concentrations tested (0-100 mM)", "result": "approximately 1 h"}, {"measurement": "effect on growth rate", "setting": "[3]; concentrations as high as 100 mM CsCl, LB media", "result": "minimal effect"}, {"measurement": "doubling time", "setting": "S. mutans [2]", "result": 2.49, "unit": "h"}, {"measurement": "doubling time", "setting": "S. mutans [4]; 25 mM CsCl, pH 7.00", "result": 52, "unit": "min"}, {"measurement": "inhibition", "setting": "S. mutans [4]; 25 mM CsCl, pH 7.25", "result": "No inhibition"}, {"measurement": "doubling time", "setting": "S. mutans [4]; 25 mM CsCl, pH 8.33", "result": 64, "unit": "min"}, {"measurement": "increase of doubling time", "setting": "S. mutans [4]; 25 mM CsCl, pH 8.33 vs pH 7.00", "result": 25, "unit": "%"}, {"measurement": "inhibition relative to neutral pH", "setting": "S. mutans [4]; 100 mM, pH 8.33", "result": "more inhibitory"}, {"measurement": "inhibition relative to neutral or basic pH", "setting": "S. mutans [4]; pH 4.50", "result": "less inhibitory"}, {"measurement": "inhibition relative to other pH tested", "setting": "S. mutans [4]; pH 8.33", "result": "strongest inhibition"}, {"measurement": "inhibition of mutants", "setting": "[5]; 0, 50 or 100 mM CsCl in LB broth", "result": "some inhibition"}, {"measurement": "reduction in growth rate", "setting": "[5]; 100 mM CsCl vs control with 100 mM NaCl, most inhibited cultures", "result": "roughly one third"}, {"measurement": "maximum yield", "setting": "[1]; 0, 5, 10 and 25 mM CsCl cultures, OD 600 nm", "result": 0.9, "unit": "OD units"}, {"measurement": "doubling time", "setting": "[1]; 5 mM CsCl, NaCl added to 100 mM total supplemental cation", "result": 1.06, "unit": "h"}, {"measurement": "doubling time", "setting": "[1]; 10 mM CsCl, NaCl added to 100 mM total supplemental cation", "result": 0.94, "unit": "h"}, {"measurement": "doubling time", "setting": "[1]; 25 mM CsCl, NaCl added to 100 mM total supplemental cation", "result": 1.17, "unit": "h"}, {"measurement": "doubling time", "setting": "[1]; 50 mM CsCl, NaCl added to 100 mM total supplemental cation", "result": 1.54, "unit": "h"}, {"measurement": "doubling time", "setting": "[1]; 75 mM CsCl, NaCl added to 100 mM total supplemental cation", "result": 2.37, "unit": "h"}, {"measurement": "doubling time", "setting": "[1]; 100 mM CsCl", "result": 4.17, "unit": "h"}, {"measurement": "growth of S. mutans", "setting": "[1]; 100 mM CsCl culture", "result": "almost completely inhibited"}, {"measurement": "colonies on TS-agar plate", "setting": "[1]", "result": "thin translucent colonies after a week"}, {"measurement": "Minimum Inhibitory Concentration (MIC)", "setting": "[1]", "result": 61.2, "unit": "mM"}]}
{"compound": "O=C([O-])O.[Na+]", "note": "[sodium bicarbonate]", "values": [{"measurement": "completely inhibitory concentration", "setting": "S. mutans [6]; 8% w/v converted", "result": "~950", "unit": "mM"}, {"measurement": "completely inhibitory concentration", "setting": "S. mutans [6]", "result": 8, "unit": "% w/v"}]}
{"compound": "O=[N+]([O-])[O-].[Cs+]", "note": "[Cesium nitrate]", "values": [{"measurement": "inhibition of culture growth rates", "setting": "[1]", "result": "roughly 30%"}]}
{"compound": "[Cs+].[I-]", "note": "[Cesium iodide]", "values": [{"measurement": "inhibition of S. mutans growth", "setting": "[1]; [7]", "result": "little to no inhibition"}]}
